In patent publication US6800630B2, “Pyrimidine derivatives having antitumor effect” (Shionogi & Co., Ltd., priority 2000, dated 2004):
Values after ≈ are worked out from the molar mass of the structure shown.

Tests used:
Format in all cases: cell-based
[1] = test system: human squamous lung cancer RERF-RC-AI; assay: In vitro cell growth inhibition test, MTT assay; details: MTT assay 4 days after compound addition
Description: (§1) Test Example 2 In vitro cell growth inhibition test Cells and MTT assay
(§2) Human squamous lung cancer […], human squamous lung cancer Ma44, human lung adenocarcinoma A549, human colon cancer HT29 and human pancreas cancer PANC-1 were used.

[2] = test system: human lung adenocarcinoma A549; assay: In vitro cell growth inhibition test, MTT assay; details: MTT assay 4 days after compound addition
Description: as §1, §2

H460 = assay: In vitro cell growth inhibition test, MTT assay; details: MTT assay 4 days after compound addition
Description: [The source words this procedure for another cell line and reports this cell line under the same test.] as §1, §2

[3] = test system: human squamous lung cancer Ma44; assay: In vitro cell growth inhibition test, MTT assay; details: MTT assay 4 days after compound addition
Description: as §1, §2

human colon cancer HT29 = assay: In vitro cell growth inhibition test, MTT assay; details: MTT assay 4 days after compound addition
Description: as §1, §2

[4] = test system: human pancreas cancer PANC-1; assay: In vitro cell growth inhibition test, MTT assay; details: MTT assay 4 days after compound addition
Description: as §1, §2

[5] = test system: DT-C cells (pGV-P transfected v-ki-ras-transformed NIH373 cells); assay: Luciferase activity of DT-C control cells (IC50-C), index of non-specific transcription-inhibitory effect or cytotoxicity; details: tested concentration nearest to 50% inhibition in DT-C cells
Description: (§3) Test Example 1 Inhibitory effect against cellular signaling derived from Ras oncogene products
(§4) Based on the reporter plasmid (pGV-P (Toyo Ink, Japan)), in which luciferase gene was ligated to SV40-derived minimal promoter, we constructed a plasmid designated pRRE3-luc by inserting 3 copies of chemically synthesized oligonucleotides (Sequence: CAGGATATGACTCT, derived from mouse NVL-3 (M. A. Reddy et al.(1992)Mol. Endocrinol., 6, 1051)) into upstream of the promoter. v-ki-ras-transformed NIH373 cells (DT cells, provided by Dr. Makoto Noda (Kyoto Univ., School of medicine)) were transfected with this plasmid by liposome-mediated transfection and transfected cell lines stably incorporated and maintained each plasmid were obtained. We named pGV-P and pRRE3-transfected cell line as DT-C and DT-R, respectively and used in the assay described below.
(§5) i) All the cell lines were cultured in Dulbecco's Modified Essential Medium (DMEM: 10% Fetal Calf Serum(FCS: Hyclone, USA)) including […] kanamycin (Meiji Seika, Japan) in humidified incubator under condition of 5% CO2 at 37° C.
(§6) ii) DT-C and DT-R cells were seeded at 2500 cells/well into flat-bottom 96 well multiplate (Sumitomo bakelite) and incubated for 24 hours.
(§7) iii) Test compounds were prepared as 1 mg/ml DMSO solution.
(§8) iv) The solution of test compounds were added to the culture. Tested compounds are used at the concentration from […] to 0.51 ng/ml with 3-fold dilution.
(§9) v) After 24 hours, the culture supernatant was completely aspirated and 20 μl of cell-lysing solution (PGC-50 (Toyo Ink, Japan)) was added before cells were dried up. In order to lyse the cells completely, multiwell plates were left at room temperature for 10 to 30 min. The plates were wrapped up and stored at −20° C. till the day of measurement.
(§10) i) Melt the samples by putting 96 well multiplate at 37° C. and add 90 μl/well 25 mM Tris (pH 7.5).
(§11) ii) Transfer 50 μl of the sample (110 μl) to the 96 well microplate (Microlite 1 (Dynatech)) for measurement.
(§12) iii) Measure the samples by the luminometer, LUMINOUS CT9000D (Dia-Yatron, Japan). We used Pickagene luminescence kit PGL2000 or LT2.0 (Toyo Ink, Japan) as enzyme substrates for luminescence measurement (50 μl/well).
(§13) i) The luciferase activity of DT-C cells and DT-R cells were plotted in the graph where the relative activity and the compound concentration were expressed as Y-axis and X-axis, respectively. We judged by the degree of dissociation between the activities of DT-C cells and DT-R cells as an index.
b) Among the points of concentration tested, the concentration which is the nearest to 50% inhibition concentration at DT-C cells (IC50-C), was shown as an index of non-specific transcription-inhibitory effect or of cytotoxicity. In case of positive compounds, 50% inhibition concentration in DT-C cells which was higher than the active concentration was expressed as IC50-C.

[6] = test system: signal derived from Ras oncogene products (DT-R cells, pRRE3-luc transfected v-ki-ras-transformed NIH373 cells); assay: Inhibitory effect against cellular signaling derived from Ras oncogene products: RRE-luciferase reporter, Minimal Active Concentration (MAC) at which DT-C and DT-R activities dissociate; details: minimal concentration at which luciferase activities of DT-C and DT-R cells dissociated
Description: as §3, §4, §5, §6, §7, §8, §9, §10, §11, §12, §13
ii) Concretely, efficacy of the compound was expressed by two values described below.
a) Among the points of concentration tested, the minimal concentration (Minimal Active Concentration: MAC), at which the activities of DT-C cells and DT-R cells dissociated, was shown as an index of efficacy of the compound.

| IC50 RERF-LC-AI [1] [µg/mL] | IC50 A549 [2] [µg/mL] | IC50 H460 (H460) [µg/mL] | IC50 Ma44 [3] [µg/mL] | IC50 HT-29 (human colon cancer HT29) [µg/mL] | IC50 PANC-1 [4] [µg/mL] | SMILES | IC50 (IC50-C) [5] [µg/mL] | MAC (Minimal Active Concentration) [6] [µg/mL] |
| --- | --- | --- | --- | --- | --- | --- | --- | --- |
| 0.0073 (≈ 0.0165 µM) | 0.0146 (≈ 0.0329 µM) | 0.0107 (≈ 0.0241 µM) | 0.0136 (≈ 0.0307 µM) | 0.0081 (≈ 0.0183 µM) | 0.0065 (≈ 0.0147 µM) | CCCSC(=Nc1nc(C)ncc1CSc1nnc(-c2ccc(N)cc2)o1)NCC [Compound A-16] | >10 | <0.000508 |
| 0.0065 (≈ 0.0151 µM) | 0.0111 (≈ 0.0258 µM) | 0.0153 (≈ 0.0356 µM) | 0.0127 (≈ 0.0296 µM) | 0.0103 (≈ 0.024 µM) | 0.0124 (≈ 0.0289 µM) | CCCSC(=Nc1nc(C)ncc1CSc1nnc(-c2ccc(N)cc2)o1)NC [Compound A-15] | >10 | 0.00152 |
| 0.0278 (≈ 0.0587 µM) | 0.0093 (≈ 0.0196 µM) | 0.0068 (≈ 0.0144 µM) | 0.0341 (≈ 0.072 µM) | 0.0414 (≈ 0.0874 µM) | 0.0371 (≈ 0.0783 µM) | CCCSC(=Nc1nc(C)ncc1CSc1nnc(-c2ccc([N+](=O)[O-])cc2)o1)NCC [Compound A-8] | >10 | 0.123 |
